Experimental data as given in patent EP1432683B9 (Recordati Ireland Limited, priority 2001, dated 2003).
“And” between values parts separate entries of the source, which are not always exact repeats. Equal entries are not always repeated. Structures can show the parent of a compound that is named as a salt. Where two headings read alike, the source gives them in different places. Marks after values point to notes of the source that are not given here.

Legend:
[1] = Relative bioavailability of Form (I) and Form (II) in man; format: in vivo
Procedure: Blood samples were taken at 15 points from time 0 to 24 h post-dosing and plasma concentrations of lercanidipine were determined with a stereoselective analytical method HPLC-MS/MS.

[2] = Bioavailability of crystalline Forms (I) and (II) in dogs; format: in vivo, Beagle dogs
Procedure: A study was carried out on six Beagle dogs to evaluate the bioavailability of crystalline Forms (I) and (II).
Blood samples were taken at given times and plasma concentrations of lercanidipine were determined with a stereoselective analytical method HPLC-MS/MS, according to the following working conditions;
Lercanidipine was extracted from dog plasma by means of a liquid-liquid extraction with a mixture of n-hexane and ethyl ether. The dry residue of the organic phase was taken up with a mixture of methanol and water and a liquid-phase chromatographic separation (LC) was carried out; the two enantiomers of lercanidipine were separated on a CHIROBIOTIC V column (Vancomycin) (particle size […], column size 150 x 4.6 mm (ASTEC, NJ, USA)) and were detected with a mass spectrometer (MS/MS) by using an electrospray technique.
The analytical method was validated in a concentration range between 0.1 and 20 ng/ml of plasma for both enantiomers. The method has shown to be specific with an accuracy of 15%. The average concentrations of lercanidipine in the tables represent the sum of both enantiomers.

[3] = Hygroscopicity by DVS analysis; format: physicochemical; details: 25°C, whole RH range tested
Procedure: The hygroscopicity of both crystalline Forms (I) and (II) was measured with DVS analysis by means of a water absorption analyzer (SURFACE MEASUREMENT SYSTEM, Marion, Buckinghamshire, UK) according to the following working conditions: […]

[4] = Solubility in mixtures of water-ethanol at 25°C and 40°C; format: physicochemical; details: at both 25°C and 40°C
[5] = Solubility in water and in ethanol at room temperature (UV-Visible spectroscopy); format: physicochemical
Excerpt: The molar absorptivity had been previously determined in acetonitrile. The same molar absorptivity was considered for the determination in water and in ethanol. Solubility in water certainly depends on pH. The residual solid obtained by filtration of the suspension was immediately analyzed with Raman spectroscopy.

[6] = Dog 1, oral 3 mg/kg, hydrochloride, 3 mg/kg
[7] = Dog 2 (not included in mean), oral 3 mg/kg, hydrochloride, 3 mg/kg
[8] = Dog 3, oral 3 mg/kg, hydrochloride, 3 mg/kg
[9] = Dog 4, oral 3 mg/kg, hydrochloride, 3 mg/kg
[10] = Dog 5, oral 3 mg/kg, hydrochloride, 3 mg/kg
[11] = Mean (n=5, Dog 2 not included), oral 3 mg/kg, hydrochloride, 3 mg/kg

COC(=O)C1=C(C)NC(C)=C(C(=O)OC(C)(C)CN(C)CCC(c2ccccc2)c2ccccc2)C1c1cccc([N+](=O)[O-])c1 (single isomer, unassigned) [Form (II), lercanidipine hydrochloride]
bioequivalence to Form I ([1]; 10 mg tablet): not bioequivalent to Form I
AUC0-t ([1]; 10 mg tablet, single dose, geom. least square mean, 1440 min, hydrochloride): 10.36 ng·h/mL
Cmax ([1]; 10 mg tablet, single dose, geom. least square mean, hydrochloride): 3.22 ng/mL
Tmax ([1]; 10 mg tablet, single dose, median, hydrochloride): 2.50* h
tmax Point Estimate (T/R), median difference ([1]; Test = Form (II) tablet, Reference = Form (I) tablet (Zanedip)): 0.75** h
AUC0-t [2, 6]: 54.59 ng/h/mL
Cmax [2, 6]: 18.46 ng/mL
Tmax [2, 6]: 3.00 h
AUC0-t [2, 7]: 119.77 ng/h/mL
Cmax [2, 7]: 52.19 ng/mL
Tmax [2, 7]: 1.50 h
AUC0-t [2, 8]: 75.62 ng/h/mL
Tmax [2, 8]: 1.50 h
AUC0-t [2, 9]: 173.82 ng/h/mL
Tmax [2, 9]: 4.00 h
AUC0-t [2, 10]: 142.34 ng/h/mL
Cmax [2, 10]: 55.38 ng/mL
Tmax [2, 10]: 2.00 h
Tmax ([2]; Dog 6, oral 3 mg/kg): 6.00 h
AUC0-t ([2]; Dog 6, oral 3 mg/kg, hydrochloride, 3 mg/kg): 61.91 ng/h/mL
AUC0-t [2, 11]: 104.68 ng/h/mL
Cmax [2, 11]: 36.17 ng/mL
Tmax [2, 11]: 3.00 h
concentration in plasma of lercanidipine (S+R) ([2]; Time 0 h, Dog 1, oral 3 mg/kg): 0.00 ng/mL
concentration in plasma of lercanidipine (S+R) ([2]; Time 0 h, Dog 2 (not included in mean), oral 3 mg/kg): 0.00 ng/mL
concentration in plasma of lercanidipine (S+R) ([2]; Time 0 h, Dog 3, oral 3 mg/kg): 0.00 ng/mL
concentration in plasma of lercanidipine (S+R) ([2]; Time 0 h, Dog 4, oral 3 mg/kg): 0.00 ng/mL
concentration in plasma of lercanidipine (S+R) ([2]; Time 0 h, Dog 5, oral 3 mg/kg): 0.00 ng/mL
concentration in plasma of lercanidipine (S+R) ([2]; Time 0 h, Dog 6, oral 3 mg/kg): 0.00 ng/mL
concentration in plasma of lercanidipine (S+R) ([2]; Time 0 h, Mean (Dog 2 not included), oral 3 mg/kg): 0.00 ng/mL
concentration in plasma of lercanidipine (S+R) ([2]; Time 0.5 h, Dog 1, oral 3 mg/kg, hydrochloride, 3 mg/kg): 0.00 ng/mL
concentration in plasma of lercanidipine (S+R) ([2]; Time 0.5 h, Dog 2 (not included in mean), oral 3 mg/kg, hydrochloride, 3 mg/kg, 30 min): 22.67 ng/mL
concentration in plasma of lercanidipine (S+R) ([2]; Time 0.5 h, Dog 4, oral 3 mg/kg): 0.00 ng/mL
concentration in plasma of lercanidipine (S+R) ([2]; Time 0.5 h, Dog 5, oral 3 mg/kg): 0.00 ng/mL
concentration in plasma of lercanidipine (S+R) ([2]; Time 0.5 h, Dog 6, oral 3 mg/kg): 0.00 ng/mL
concentration in plasma of lercanidipine (S+R) ([2]; Time 1 h, Dog 1, oral 3 mg/kg, hydrochloride, 3 mg/kg): 0.00 ng/mL
concentration in plasma of lercanidipine (S+R) ([2]; Time 1 h, Dog 2 (not included in mean), oral 3 mg/kg, hydrochloride, 3 mg/kg, 60 min): 52.13 ng/mL
concentration in plasma of lercanidipine (S+R) ([2]; Time 1 h, Dog 6, oral 3 mg/kg): 0.00 ng/mL
concentration in plasma of lercanidipine (S+R) ([2]; Time 1 h, Mean (Dog 2 not included), oral 3 mg/kg, hydrochloride, 3 mg/kg, 60 min): 5.08 ng/mL
concentration in plasma of lercanidipine (S+R) ([2]; Time 1.5 h, Dog 1, oral 3 mg/kg, hydrochloride, 3 mg/kg, 90 min): 0.23 ng/mL
concentration in plasma of lercanidipine (S+R) ([2]; Time 1.5 h, Dog 2 (not included in mean), oral 3 mg/kg, hydrochloride, 3 mg/kg, 90 min): 52.19 ng/mL
concentration in plasma of lercanidipine (S+R) ([2]; Time 1.5 h, Dog 3, oral 3 mg/kg, hydrochloride, 3 mg/kg, 90 min): 19.78 ng/mL
concentration in plasma of lercanidipine (S+R) ([2]; Time 1.5 h, Dog 5, oral 3 mg/kg, hydrochloride, 3 mg/kg, 90 min): 32.69 ng/mL
concentration in plasma of lercanidipine (S+R) ([2]; Time 1.5 h, Mean (Dog 2 not included), oral 3 mg/kg, hydrochloride, 3 mg/kg, 90 min): 18.32 ng/mL
concentration in plasma of lercanidipine (S+R) ([2]; Time 2 h, Dog 2 (not included in mean), oral 3 mg/kg, hydrochloride, 3 mg/kg, 120 min): 35.45 ng/mL
concentration in plasma of lercanidipine (S+R) ([2]; Time 2 h, Dog 3, oral 3 mg/kg, hydrochloride, 3 mg/kg, 120 min): 17.81 ng/mL
concentration in plasma of lercanidipine (S+R) ([2]; Time 2 h, Dog 4, oral 3 mg/kg, hydrochloride, 3 mg/kg, 120 min): 38.10 ng/mL
concentration in plasma of lercanidipine (S+R) ([2]; Time 2 h, Dog 5, oral 3 mg/kg, hydrochloride, 3 mg/kg, 120 min): 55.38 ng/mL
concentration in plasma of lercanidipine (S+R) ([2]; Time 2 h, Dog 6, oral 3 mg/kg, hydrochloride, 3 mg/kg, 120 min): 10.19 ng/mL
concentration in plasma of lercanidipine (S+R) ([2]; Time 2 h, Mean (Dog 2 not included), oral 3 mg/kg, hydrochloride, 3 mg/kg, 120 min): 25.82 ng/mL
concentration in plasma of lercanidipine (S+R) ([2]; Time 3 h, Dog 1, oral 3 mg/kg, hydrochloride, 3 mg/kg, 180 min): 18.46 ng/mL
concentration in plasma of lercanidipine (S+R) ([2]; Time 3 h, Dog 2 (not included in mean), oral 3 mg/kg, hydrochloride, 3 mg/kg, 180 min): 17.43 ng/mL
concentration in plasma of lercanidipine (S+R) ([2]; Time 3 h, Dog 3, oral 3 mg/kg, hydrochloride, 3 mg/kg, 180 min): 15.80 ng/mL
concentration in plasma of lercanidipine (S+R) ([2]; Time 3 h, Mean (Dog 2 not included), oral 3 mg/kg, hydrochloride, 3 mg/kg, 180 min): 23.46 ng/mL
concentration in plasma of lercanidipine (S+R) ([2]; Time 4 h, Dog 1, oral 3 mg/kg, hydrochloride, 3 mg/kg, 240 min): 14.83 ng/mL
concentration in plasma of lercanidipine (S+R) ([2]; Time 4 h, Dog 2 (not included in mean), oral 3 mg/kg, hydrochloride, 3 mg/kg, 240 min): 5.17 ng/mL
concentration in plasma of lercanidipine (S+R) ([2]; Time 4 h, Dog 4, oral 3 mg/kg, hydrochloride, 3 mg/kg, 240 min): 52.64 ng/mL
concentration in plasma of lercanidipine (S+R) ([2]; Time 4 h, Dog 6, oral 3 mg/kg, hydrochloride, 3 mg/kg, 240 min): 13.24 ng/mL
concentration in plasma of lercanidipine (S+R) ([2]; Time 4 h, Mean (Dog 2 not included), oral 3 mg/kg, hydrochloride, 3 mg/kg, 240 min): 23.69 ng/mL
concentration in plasma of lercanidipine (S+R) ([2]; Time 6 h (last sampling time), Mean (Dog 2 not included), oral 3 mg/kg, hydrochloride, 3 mg/kg, 360 min): 10.9 ± 6.8 ng/mL and 10.89 ng/mL
concentration in plasma of lercanidipine (S+R) ([2]; Time 6 h, Dog 1, oral 3 mg/kg, hydrochloride, 3 mg/kg, 360 min): 8.05 ng/mL
concentration in plasma of lercanidipine (S+R) ([2]; Time 6 h, Dog 2 (not included in mean), oral 3 mg/kg, hydrochloride, 3 mg/kg, 360 min): 4.50 ng/mL
concentration in plasma of lercanidipine (S+R) ([2]; Time 6 h, Dog 3, oral 3 mg/kg, hydrochloride, 3 mg/kg, 360 min): 3.62 ng/mL
concentration in plasma of lercanidipine (S+R) ([2]; Time 6 h, Dog 4, oral 3 mg/kg, hydrochloride, 3 mg/kg, 360 min): 17.46 ng/mL
concentration in plasma of lercanidipine (S+R) ([2]; Time 6 h, Dog 5, oral 3 mg/kg, hydrochloride, 3 mg/kg, 360 min): 6.76 ng/mL
concentration in plasma of lercanidipine (S+R) ([2]; Time 6 h, Dog 6, oral 3 mg/kg, hydrochloride, 3 mg/kg, 360 min): 18.56 ng/mL
Cmax ([2]; dog, plasma, po, 3 mg/kg, Dog 3, read-out: Cmax): 19.8 ng/mL
Cmax ([2]; dog, plasma, po, 3 mg/kg, Dog 4, read-out: Cmax): 52.6 ng/mL
Cmax ([2]; dog, plasma, po, 3 mg/kg, Dog 6, read-out: Cmax): 18.6 ng/mL
concentration at 0.5 h ([2]; dog, plasma, po, 3 mg/kg, Time 0.5 h, Dog 3, read-out: concentration in plasma of lercanidipine (S+R)): 6.99 ng/mL
concentration at 0.5 h ([2]; dog, plasma, po, 3 mg/kg, Time 0.5 h, Mean (Dog 2 not included), read-out: concentration in plasma of lercanidipine (S+R)): 1.4 ng/mL
concentration at 1 h ([2]; dog, plasma, po, 3 mg/kg, Time 1 h, Dog 3, read-out: concentration in plasma of lercanidipine (S+R)): 16.6 ng/mL
concentration at 1 h ([2]; dog, plasma, po, 3 mg/kg, Time 1 h, Dog 4, read-out: concentration in plasma of lercanidipine (S+R)): 5.5 ng/mL
concentration at 1 h ([2]; dog, plasma, po, 3 mg/kg, Time 1 h, Dog 5, read-out: concentration in plasma of lercanidipine (S+R)): 3.28 ng/mL
concentration at 1.5 h ([2]; dog, plasma, po, 3 mg/kg, Time 1.5 h, Dog 4, read-out: concentration in plasma of lercanidipine (S+R)): 35.4 ng/mL
concentration at 1.5 h ([2]; dog, plasma, po, 3 mg/kg, Time 1.5 h, Dog 6, read-out: concentration in plasma of lercanidipine (S+R)): 3.49 ng/mL
concentration at 2 h ([2]; dog, plasma, po, 3 mg/kg, Time 2 h, Dog 1, read-out: concentration in plasma of lercanidipine (S+R)): 7.63 ng/mL
concentration at 3 h ([2]; dog, plasma, po, 3 mg/kg, Time 3 h, Dog 4, read-out: concentration in plasma of lercanidipine (S+R)): 28.4 ng/mL
concentration at 3 h ([2]; dog, plasma, po, 3 mg/kg, Time 3 h, Dog 5, read-out: concentration in plasma of lercanidipine (S+R)): 40.6 ng/mL
concentration at 4 h ([2]; dog, plasma, po, 3 mg/kg, Time 4 h, Dog 3, read-out: concentration in plasma of lercanidipine (S+R)): 14.1 ng/mL
concentration at 4 h ([2]; dog, plasma, po, 3 mg/kg, Time 4 h, Dog 5, read-out: concentration in plasma of lercanidipine (S+R)): 23.7 ng/mL
mass variation [3]: < 0.05%
water concentration at which the maximum solubility is reached [4]: 20%
Solubility compared with Form (I) [5]: less soluble than Form (I) in both solvents
